Assay results taken from ChEMBL document CHEMBL3132823, “Novel radioiodinated 1,3,4-oxadiazole derivatives with improved in vivo properties for SPECT imaging of -amyloid plaques” (Medchemcomm, 2014).
Active and inactive are the calls of the source. The rule behind the calls is not given here.

Experiments:
[1] = target: T1, Amyloid-beta precursor protein (Homo sapiens, UniProt P05067); assay: Inhibition of [125I]IMPY binding to amyloid beta (1 to 42) aggregates (unknown origin) by gamma counting
Mus musculus [2] = assay: In vivo binding affinity to amyloid beta plaques in iv dosed wild type mouse brain at 44 to 48 MBq after 20 to 80 mins by SPECT study; assay type: functional, organism-based; conditions: 44 to 48 M, tested as the 125I-labelled form
Mus musculus [3] = assay: In vivo binding affinity to amyloid beta plaques in iv dosed Tg2576 transgenic mouse brain at 44 to 48 MBq after 20 to 80 mins by SPECT study; assay type: functional, organism-based; conditions: 44 to 48 M, tested as the 125I-labelled form
Mus musculus [4] = assay: In vivo binding affinity to amyloid beta plaques in iv dosed wild type mouse brain after 70 mins by autoradiography analysis; assay type: functional, organism-based; conditions: tested as the 125I-labelled form
Mus musculus [5] = assay: In vivo binding affinity to amyloid beta plaques in iv dosed Tg2576 transgenic mouse brain after 70 mins by autoradiography analysis; assay type: functional, organism-based; conditions: tested as the 125I-labelled form
[6] = Octanol-phosphate buffer partition coefficient, log p of the compound at pH 7.4 by automatic gamma counting; assay type: physicochemical
[7] = target: T1, Amyloid-beta precursor protein; assay: In vitro binding affinity to amyloid beta plaques in human AD brain at 148 kBq after 1 hr incubation at room temperature by autoradiography analysis; conditions: tested as the 125I-labelled form
Brain [8] = assay: Biodistribution in iv dosed ddY mouse brain measured per gram of tissue after 60 mins by automatic gamma counting; assay type: ADME, organism-based; conditions: in vivo, 1 h
Stomach [9] = assay: Biodistribution in iv dosed ddY mouse stomach measured per organ after 60 mins by automatic gamma counting; assay type: ADME, organism-based; conditions: in vivo, 1 h
Heart [10] = assay: Biodistribution in iv dosed ddY mouse heart measured per gram of tissue after 60 mins by automatic gamma counting; assay type: ADME, organism-based; conditions: in vivo, 1 h
Pancreas [11] = assay: Biodistribution in iv dosed ddY mouse pancreas measured per gram of tissue after 60 mins by automatic gamma counting; assay type: ADME, organism-based; conditions: in vivo, 1 h
Blood [12] = assay: Biodistribution in iv dosed ddY mouse blood measured per gram of tissue after 2 mins by automatic gamma counting; assay type: ADME, organism-based; conditions: in vivo
Liver [13] = assay: Biodistribution in iv dosed ddY mouse liver measured per gram of tissue after 2 mins by automatic gamma counting; assay type: ADME, organism-based; conditions: in vivo
Kidney [14] = assay: Biodistribution in iv dosed ddY mouse kidney measured per gram of tissue after 2 mins by automatic gamma counting; assay type: ADME, organism-based; conditions: in vivo
Intestine [15] = assay: Biodistribution in iv dosed ddY mouse intestine measured per gram of tissue after 2 mins by automatic gamma counting; assay type: ADME, organism-based; conditions: in vivo
Spleen [16] = assay: Biodistribution in iv dosed ddY mouse spleen measured per gram of tissue after 2 mins by automatic gamma counting; assay type: ADME, organism-based; conditions: in vivo
Pancreas [17] = assay: Biodistribution in iv dosed ddY mouse pancreas measured per gram of tissue after 2 mins by automatic gamma counting; assay type: ADME, organism-based; conditions: in vivo
Heart [18] = assay: Biodistribution in iv dosed ddY mouse heart measured per gram of tissue after 2 mins by automatic gamma counting; assay type: ADME, organism-based; conditions: in vivo
Stomach [19] = assay: Biodistribution in iv dosed ddY mouse stomach measured per organ after 2 mins by automatic gamma counting; assay type: ADME, organism-based; conditions: in vivo
Brain [20] = assay: Biodistribution in iv dosed ddY mouse brain measured per gram of tissue after 2 mins by automatic gamma counting; assay type: ADME, organism-based; conditions: in vivo
Blood [21] = assay: Biodistribution in iv dosed ddY mouse blood measured per gram of tissue after 10 mins by automatic gamma counting; assay type: ADME, organism-based; conditions: in vivo
Liver [22] = assay: Biodistribution in iv dosed ddY mouse liver measured per gram of tissue after 10 mins by automatic gamma counting; assay type: ADME, organism-based; conditions: in vivo
Kidney [23] = assay: Biodistribution in iv dosed ddY mouse kidney measured per gram of tissue after 10 mins by automatic gamma counting; assay type: ADME, organism-based; conditions: in vivo
Intestine [24] = assay: Biodistribution in iv dosed ddY mouse intestine measured per gram of tissue after 10 mins by automatic gamma counting; assay type: ADME, organism-based; conditions: in vivo
Spleen [25] = assay: Biodistribution in iv dosed ddY mouse spleen measured per gram of tissue after 10 mins by automatic gamma counting; assay type: ADME, organism-based; conditions: in vivo
Pancreas [26] = assay: Biodistribution in iv dosed ddY mouse pancreas measured per gram of tissue after 10 mins by automatic gamma counting; assay type: ADME, organism-based; conditions: in vivo
Heart [27] = assay: Biodistribution in iv dosed ddY mouse heart measured per gram of tissue after 10 mins by automatic gamma counting; assay type: ADME, organism-based; conditions: in vivo
Stomach [28] = assay: Biodistribution in iv dosed ddY mouse stomach measured per organ after 10 mins by automatic gamma counting; assay type: ADME, organism-based; conditions: in vivo
Brain [29] = assay: Biodistribution in iv dosed ddY mouse brain measured per gram of tissue after 10 mins by automatic gamma counting; assay type: ADME, organism-based; conditions: in vivo
Blood [30] = assay: Biodistribution in iv dosed ddY mouse blood measured per gram of tissue after 30 mins by automatic gamma counting; assay type: ADME, organism-based; conditions: in vivo, 0.5 h
Liver [31] = assay: Biodistribution in iv dosed ddY mouse liver measured per gram of tissue after 30 mins by automatic gamma counting; assay type: ADME, organism-based; conditions: in vivo, 0.5 h
Kidney [32] = assay: Biodistribution in iv dosed ddY mouse kidney measured per gram of tissue after 30 mins by automatic gamma counting; assay type: ADME, organism-based; conditions: in vivo, 0.5 h
Intestine [33] = assay: Biodistribution in iv dosed ddY mouse intestine measured per gram of tissue after 30 mins by automatic gamma counting; assay type: ADME, organism-based; conditions: in vivo, 0.5 h
Spleen [34] = assay: Biodistribution in iv dosed ddY mouse spleen measured per gram of tissue after 30 mins by automatic gamma counting; assay type: ADME, organism-based; conditions: in vivo, 0.5 h
Pancreas [35] = assay: Biodistribution in iv dosed ddY mouse pancreas measured per gram of tissue after 30 mins by automatic gamma counting; assay type: ADME, organism-based; conditions: in vivo, 0.5 h
Heart [36] = assay: Biodistribution in iv dosed ddY mouse heart measured per gram of tissue after 30 mins by automatic gamma counting; assay type: ADME, organism-based; conditions: in vivo, 0.5 h
Stomach [37] = assay: Biodistribution in iv dosed ddY mouse stomach measured per organ after 30 mins by automatic gamma counting; assay type: ADME, organism-based; conditions: in vivo, 0.5 h
Brain [38] = assay: Biodistribution in iv dosed ddY mouse brain measured per gram of tissue after 30 mins by automatic gamma counting; assay type: ADME, organism-based; conditions: in vivo, 0.5 h
Blood [39] = assay: Biodistribution in iv dosed ddY mouse blood measured per gram of tissue after 60 mins by automatic gamma counting; assay type: ADME, organism-based; conditions: in vivo, 1 h
Liver [40] = assay: Biodistribution in iv dosed ddY mouse liver measured per gram of tissue after 60 mins by automatic gamma counting; assay type: ADME, organism-based; conditions: in vivo, 1 h
Kidney [41] = assay: Biodistribution in iv dosed ddY mouse kidney measured per gram of tissue after 60 mins by automatic gamma counting; assay type: ADME, organism-based; conditions: in vivo, 1 h
Intestine [42] = assay: Biodistribution in iv dosed ddY mouse intestine measured per gram of tissue after 60 mins by automatic gamma counting; assay type: ADME, organism-based; conditions: in vivo, 1 h
Spleen [43] = assay: Biodistribution in iv dosed ddY mouse spleen measured per gram of tissue after 60 mins by automatic gamma counting; assay type: ADME, organism-based; conditions: in vivo, 1 h
Plasma = assay: Metabolic stability in mouse plasma at 11 kBq after 1 hr at 37 degC by HPLC analysis; assay type: ADME, cell-free

T1 sequence (P05067 whole entry): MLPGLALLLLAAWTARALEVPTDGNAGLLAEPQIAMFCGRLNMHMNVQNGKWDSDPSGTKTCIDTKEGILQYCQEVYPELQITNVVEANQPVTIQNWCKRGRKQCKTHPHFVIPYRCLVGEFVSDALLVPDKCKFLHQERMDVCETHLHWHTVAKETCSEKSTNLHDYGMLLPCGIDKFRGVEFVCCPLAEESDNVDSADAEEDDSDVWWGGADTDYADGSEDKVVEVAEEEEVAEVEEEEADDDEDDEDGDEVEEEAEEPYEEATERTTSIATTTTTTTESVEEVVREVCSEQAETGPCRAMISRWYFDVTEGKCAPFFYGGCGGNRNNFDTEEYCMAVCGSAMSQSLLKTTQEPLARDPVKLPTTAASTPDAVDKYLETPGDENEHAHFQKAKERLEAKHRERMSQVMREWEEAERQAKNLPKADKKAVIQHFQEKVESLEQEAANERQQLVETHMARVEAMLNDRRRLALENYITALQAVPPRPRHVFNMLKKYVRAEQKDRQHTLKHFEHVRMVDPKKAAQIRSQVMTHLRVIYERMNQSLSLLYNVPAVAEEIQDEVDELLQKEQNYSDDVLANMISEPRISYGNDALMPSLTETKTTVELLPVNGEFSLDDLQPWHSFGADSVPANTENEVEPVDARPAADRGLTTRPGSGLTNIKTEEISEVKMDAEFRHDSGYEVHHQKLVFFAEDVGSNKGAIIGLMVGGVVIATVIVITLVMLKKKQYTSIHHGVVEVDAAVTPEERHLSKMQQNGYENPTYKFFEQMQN

SMILES: CN(C)c1ccc(-c2nnc(-c3ccc(I)cc3)o2)cc1
- Ki [1]: 3.91 nM

SMILES: CN(C)c1ccc(-c2nnc(-c3cccc(I)c3)o2)cn1
- Activity (Mus musculus [2]): inactive
- Activity (Mus musculus [3]): Active
- Activity (Mus musculus [4]): inactive
- Activity (Mus musculus [5]): Active
- logD [6]: 2.06
- Ki [1]: 13.6 nM
- inhibition [1]: Dose-dependent effect
- Activity [7]: Active

SMILES: CN(C)c1ccc(-c2nnc(-c3cccc([125I])c3)o2)cn1
- Drug uptake (Brain [8]): 0.48 %ID
- Drug uptake (Stomach [9]): 7.9 %ID
- Drug uptake (Heart [10]): 1.14 %ID
- Drug uptake (Pancreas [11]): 1.28 %ID
- Drug uptake (Blood [12]): 1.82 %ID
- Drug uptake (Liver [13]): 6.06 %ID
- Drug uptake (Kidney [14]): 8.85 %ID
- Drug uptake (Intestine [15]): 2.28 %ID
- Drug uptake (Spleen [16]): 2.67 %ID
- Drug uptake (Pancreas [17]): 5.15 %ID
- Drug uptake (Heart [18]): 5.76 %ID
- Drug uptake (Stomach [19]): 0.86 %ID
- Drug uptake (Brain [20]): 4.12 %ID
- Drug uptake (Blood [21]): 1.65 %ID
- Drug uptake (Liver [22]): 11.5 %ID
- Drug uptake (Kidney [23]): 4.59 %ID
- Drug uptake (Intestine [24]): 4.08 %ID
- Drug uptake (Spleen [25]): 1.74 %ID
- Drug uptake (Pancreas [26]): 2.46 %ID
- Drug uptake (Heart [27]): 2.39 %ID
- Drug uptake (Stomach [28]): 2.01 %ID
- Drug uptake (Brain [29]): 2.63 %ID
- Drug uptake (Blood [30]): 1.67 %ID
- Drug uptake (Liver [31]): 8.42 %ID
- Drug uptake (Kidney [32]): 2.95 %ID
- Drug uptake (Intestine [33]): 8.77 %ID
- Drug uptake (Spleen [34]): 1.39 %ID
- Drug uptake (Pancreas [35]): 1.56 %ID
- Drug uptake (Heart [36]): 1.27 %ID
- Drug uptake (Stomach [37]): 5.67 %ID
- Drug uptake (Brain [38]): 0.87 %ID
- Drug uptake (Blood [39]): 1.76 %ID
- Drug uptake (Liver [40]): 5.94 %ID
- Drug uptake (Kidney [41]): 2.3 %ID
- Drug uptake (Intestine [42]): 12.08 %ID
- Drug uptake (Spleen [43]): 1.21 %ID
- Stability (Plasma): Stable

SMILES: CN(C)c1ccc(-c2nnc(-c3ccc(I)cc3)o2)cn1
- Activity (Mus musculus [4]): inactive
- Activity (Mus musculus [5]): Active
- logD [6]: 2.06
- Ki [1]: 24.8 nM
- inhibition [1]: Dose-dependent effect
- Activity [7]: Active

SMILES: CN(C)c1ccc(-c2nnc(-c3ccc([125I])cc3)o2)cn1
- Drug uptake (Brain [8]): 0.4 %ID
- Drug uptake (Stomach [9]): 10.24 %ID
- Drug uptake (Heart [10]): 1.13 %ID
- Drug uptake (Pancreas [11]): 1.27 %ID
- Drug uptake (Blood [12]): 1.93 %ID
- Drug uptake (Liver [13]): 6.41 %ID
- Drug uptake (Kidney [14]): 6.43 %ID
- Drug uptake (Intestine [15]): 1.5 %ID
- Drug uptake (Spleen [16]): 2.97 %ID
- Drug uptake (Pancreas [17]): 4.92 %ID
- Drug uptake (Heart [18]): 4.48 %ID
- Drug uptake (Stomach [19]): 0.91 %ID
- Drug uptake (Brain [20]): 3.88 %ID
- Drug uptake (Blood [21]): 2.33 %ID
- Drug uptake (Liver [22]): 7.44 %ID
- Drug uptake (Kidney [23]): 4.61 %ID
- Drug uptake (Intestine [24]): 3.38 %ID
- Drug uptake (Spleen [25]): 3.01 %ID
- Drug uptake (Pancreas [26]): 3.07 %ID
- Drug uptake (Heart [27]): 2.15 %ID
- Drug uptake (Stomach [28]): 2.49 %ID
- Drug uptake (Brain [29]): 3.03 %ID
- Drug uptake (Blood [30]): 1.97 %ID
- Drug uptake (Liver [31]): 3.86 %ID
- Drug uptake (Kidney [32]): 2.96 %ID
- Drug uptake (Intestine [33]): 5.29 %ID
- Drug uptake (Spleen [34]): 1.72 %ID
- Drug uptake (Pancreas [35]): 1.67 %ID
- Drug uptake (Heart [36]): 1.31 %ID
- Drug uptake (Stomach [37]): 7.25 %ID
- Drug uptake (Brain [38]): 1.05 %ID
- Drug uptake (Blood [39]): 1.79 %ID
- Drug uptake (Liver [40]): 2.61 %ID
- Drug uptake (Kidney [41]): 2.99 %ID
- Drug uptake (Intestine [42]): 8.57 %ID
- Drug uptake (Spleen [43]): 1.74 %ID
- Stability (Plasma): Stable
